{
  "source": "patent US11672812B2",
  "about": "“Methods and compositions comprising tyrosine kinase inhibitor and triptolide for the treatment of cancer” (City of Hope, priority 2020, dated 2023)",
  "key": {"[1]": {"tested_on": "HCC827 cells grafted into mice", "assay": "Tumor growth in HCC827-grafted mice", "type": "in vivo", "text": "To model human EGFR mutated NSCLC, HCC827 cells were grafted into mice.\nHCC827 or AZD9291-resistant HCC827 cancer or PC9 NSCLC cells (5×10^6) were subcutaneously injected into NOD/SCID mice (2 months old, n=6-10 for each group). […] The tumor volume was monitored twice a week for 4-8 weeks. All protocols involving animals were approved by the Research Animal Care Committee of City of Hope, in compliance with the Public Health Service Policy of the United States."}, "[2]": {"tested_on": "EGFR-TKI resistant HCC827 lung cancer cells", "assay": "Tumor growth of Tagrisso-resistant HCC827 cells grafted in mice", "type": "in vivo", "protocol": "(§1) HCC827 or AZD9291-resistant HCC827 cancer or PC9 NSCLC cells (5×10^6) were subcutaneously injected into NOD/SCID mice (2 months old, n=6-10 for each group). After tumor size reaches approximately 100 mm^3, the mice were administered AZD9291 individually or in combination with triptolide using ALZET osmotic pump, which was implanted under the skin of the mice for a specific time period. The tumor volume was monitored twice a week for 4-8 weeks. All protocols involving animals were approved by the Research Animal Care Committee of City of Hope, in compliance with the Public Health Service Policy of the United States."}, "PC9 tumor": {"tested_on": "PC9 tumor", "assay": "PC9 tumor growth in grafted mice following Tagrisso resistance development", "type": "in vivo", "conditions": "for tumor volume relative to its volume prior to the treatment (100%): PC9-grafted mice after 4 weeks Tagrisso, Tagrisso 2x dosage (Group 1), combination (Group 3)", "protocol": "as §1"}, "HCC827 cells": {"tested_on": "HCC827 cells", "assay": "Drug resistance assay (time to develop resistance, cell viability by cell counting)", "type": "cell-based, human"}, "HSP72 [3]": {"tested_on": "HSP72", "assay": "HSP72 cellular expression", "type": "cell-based", "text": "Triptolide by itself is a potent anti-tumor agent and functions by activating tumor suppressor protein p53 and blocking tumor promotor NF-κB."}, "HSP72 [4]": {"tested_on": "HSP72", "assay": "HSP72 protein level in Tagrisso-treated HCC827 cells", "type": "cell-based, human", "text": "The inventors sought to maintain high levels of HSP72 while sustaining cancer treatment with TKIs."}, "HCC827-grafted mice": {"tested_on": "HCC827-grafted mice", "assay": "Survival rates of HCC827-grafted mice", "type": "in vivo", "parameters": "dose or concentration left out as unconfirmed", "conditions": "Tagrisso with or without co-administered Velcade (FIG. 3)"}, "PC9 tumors": {"tested_on": "PC9 tumors", "assay": "Tumor growth in PC9-grafted mice (Velcade study)", "type": "in vivo", "conditions": "same treatment setting as HCC827 study", "protocol": "(§2) A separate experiment was completed using PC9-grafted mice in the same treatment setting as previously described.\nas §1"}, "[5]": {"assay": "Adverse effect observed in treated PC9-grafted mice", "type": "in vivo", "conditions": "Velcade treatment", "text": "as §2"}, "[6]": {"conditions": "HCC827-grafted mice, compared to untreated control (FIG. 2), Tagrisso at dose corresponding to recommended human dose, low dose of Velcade"}},
  "data": [
    {"smiles": "C=CC(=O)Nc1cc(Nc2nccc(-c3cn(C)c4ccccc34)n2)c(OC)cc1N(C)CCN(C)C", "note": "[Tagrisso, Osimertinib]", "values": [
      {"measurement": "tumor growth", "setting": "[1]; [6]", "value": "reduced tumor size and blocked tumor growth"},
      {"measurement": "tumor growth", "setting": "[1]; non-resistant HCC827 cells (FIG. 5A)", "value": "tumor growth is inhibited"},
      {"measurement": "tumor growth", "setting": "[2]; Tagrisso-resistant HCC827 grafted mice (FIG. 5A, 5B)", "value": "does not reduce tumor growth"},
      {"measurement": "tumor volume relative to its volume prior to the treatment (100%)", "setting": "PC9 tumor; Triptolide (Group 2)", "value": 190, "unit": "%"},
      {"measurement": "treatment time at which Tagrisso began to lose its inhibitory effect on the PC9 tumor", "setting": "PC9 tumor; PC9-grafted mice, initial Tagrisso dosage", "value": 4, "unit": "weeks"}
    ]},
    {"smiles": "C#Cc1cccc(Nc2ncnc3cc(OCCOC)c(OCCOC)cc23)c1", "note": "[Tarceva, Erlotinib]", "values": [
      {"measurement": "time for HCC827 cells to develop resistance to Tarceva", "setting": "HCC827 cells; Tarceva alone", "value": "about 30 days"}
    ]},
    {"smiles": "CC(C)[C@]12O[C@H]1[C@@H]1O[C@]13[C@]1(O[C@H]1C[C@H]1C4=C(CC[C@@]13C)C(=O)OC4)[C@@H]2O", "note": "[Triptolide]", "values": [
      {"measurement": "time HCC827 cells maintained sensitivity to Tagrisso", "setting": "HCC827 cells; Tagrisso in the presence of Triptolide, 70 day duration of the study", "value": "> 70", "unit": "days"},
      {"measurement": "time HCC827 cells maintained sensitivity to Tarceva (resistance not observed)", "setting": "HCC827 cells; Tarceva when also treated with Triptolide, 70 day duration of the study", "value": "> 70", "unit": "days"},
      {"measurement": "sensitization of Tagrisso-resistant HCC827 to the EGFR-TKI", "setting": "[2]; Tagrisso in the absence or presence of Triptolide (FIG. 5B)", "value": "sensitizes Tagrisso-resistant HCC827 cells to the EGFR-TKI"},
      {"measurement": "tumor volume relative to its volume prior to the treatment (100%)", "setting": "PC9 tumor; Triptolide (Group 2)", "value": 60, "unit": "%"},
      {"measurement": "duration of inhibitory effect on PC9 tumor growth", "setting": "PC9 tumor; after 4 weeks Tagrisso pre-treatment, Tagrisso at 2x dosage (Group 1), Triptolide (Group 2)", "value": "at least 4 weeks"},
      {"measurement": "HSP72 cellular expression", "setting": "HSP72 [3]", "value": "may activate HSP72 cellular expression"}
    ]},
    {"smiles": "CC(C)C[C@H](NC(=O)[C@H](Cc1ccccc1)NC(=O)c1cnccn1)B(O)O", "note": "[Velcade, Bortezomib]", "values": [
      {"measurement": "HSP72 protein levels", "setting": "HSP72 [4]", "value": "effectively maintains high levels of HSP72 protein"},
      {"measurement": "time HCC827 cells remained sensitive to Tagrisso", "setting": "HCC827 cells; Tagrisso in the presence of Velcade, same concentration", "value": "> 60", "unit": "days"},
      {"measurement": "tumor growth", "setting": "[1]; [6]", "value": "moderately inhibited tumor growth"},
      {"measurement": "survival of the mice", "setting": "HCC827-grafted mice", "value": "did not improve survival of the mice"},
      {"measurement": "PC9 tumor growth", "setting": "PC9 tumors", "value": "little inhibitory effect on PC9 tumor growth"},
      {"measurement": "adverse effect", "setting": "[5]", "value": "skin inflammation after one month"}
    ]}
  ]
}
